Laboratory results: patent publication US9156845B2, “4-(substituted amino)-7H-pyrrolo[2,3-d] pyrimidines as LRRK2 inhibitors” (Pfizer Inc., priority 2012, dated 2015)
pIC50: −log10 of the molar value. Where two headings read alike, the source gives them in different places.

Tests used:
PRPK = PRPK (Homo sapiens (Human), UniProt Q96S44); test: ActivX kinase probe assay (human PBMC); assay type: binding; details: read-out: percent inhibition
Experimental: Certain of the compounds of the present invention were assessed for kinase selectivity using a commercially available ActiveX targeted kinase probe in which the tissue employed was human peripheral blood mononuclear cells (PBMC). The test compounds were provided to ActivX Biosciences, Inc., 11025 North Torrey Pines Road, Suite 120; LaJolla, Calif., USA 92037. The compounds were run in the ActivX proprietary kinase assay and results were obtained at compound test concentrations of 1 μM (columns 2, 4 and 6) and 0.1 μM (columns 3, 5 and 7). The results as percent inhibition obtained for the compounds of Examples 1, 4 and 217 are provided below in Table 3.

IRE1 = IRE1 (Homo sapiens (Human), UniProt O75460); test: ActivX kinase probe assay (human PBMC); assay type: binding; details: read-out: percent inhibition
NuaK2 = NuaK2 (Homo sapiens (Human), UniProt Q9H093); test: ActivX kinase probe assay (human PBMC); assay type: binding; details: read-out: percent inhibition
RSKL1 domain1 = RSKL1 domain1 (Homo sapiens (Human), UniProt Q96S38); test: ActivX kinase probe assay (human PBMC); assay type: binding; details: read-out: percent inhibition
CaMK1a = CaMK1a (Homo sapiens (Human), UniProt Q14012); test: ActivX kinase probe assay (human PBMC); assay type: binding; details: read-out: percent inhibition
p38d, p38g = test: ActivX kinase probe assay (human PBMC); assay type: binding
GCN2 = GCN2 (Homo sapiens (Human), UniProt Q9P2K8); test: ActivX kinase probe assay (human PBMC); assay type: binding; details: read-out: percent inhibition
RSK2 domain2 = RSK2 domain2 (Homo sapiens (Human), UniProt P51812); test: ActivX kinase probe assay (human PBMC); assay type: binding; details: read-out: percent inhibition
PIP4K2C = PIP4K2C (Homo sapiens (Human), UniProt Q8TBX8); test: ActivX kinase probe assay (human PBMC); assay type: binding
PIP5K3 = PIP5K3 (Homo sapiens (Human), UniProt Q9Y2I7); test: ActivX kinase probe assay (human PBMC); assay type: binding; details: read-out: percent inhibition
BRAF = BRAF (Homo sapiens (Human), UniProt P15056); test: ActivX kinase probe assay (human PBMC); assay type: binding; details: read-out: percent inhibition
FYN, SRC, YES = test: ActivX kinase probe assay (human PBMC); assay type: binding
DGKA = DGKA (Homo sapiens (Human), UniProt P23743); test: ActivX kinase probe assay (human PBMC); assay type: binding; details: read-out: percent inhibition
IKKe, TBK1 = test: ActivX kinase probe assay (human PBMC); assay type: binding
KSR1, KSR2 = test: ActivX kinase probe assay (human PBMC); assay type: binding
SRC = SRC (Homo sapiens (Human), UniProt P12931); test: ActivX kinase probe assay (human PBMC); assay type: binding; details: read-out: percent inhibition
PIK3CG = PIK3CG (Homo sapiens (Human), UniProt P48736); test: ActivX kinase probe assay (human PBMC); assay type: binding; details: read-out: percent inhibition
CDK2 = CDK2 (Homo sapiens (Human), UniProt P24941); test: ActivX kinase probe assay (human PBMC); assay type: binding; details: read-out: percent inhibition
SLK = SLK (Homo sapiens (Human), UniProt Q9H2G2); test: ActivX kinase probe assay (human PBMC); assay type: binding; details: read-out: percent inhibition
CHK2 = CHK2 (Homo sapiens (Human), UniProt O96017); test: ActivX kinase probe assay (human PBMC); assay type: binding; details: read-out: percent inhibition
mutant G2019S LRRK2 = mutant G2019S LRRK2 (Homo sapiens (Human), UniProt Q5S007, G2019S); test: LRRK2 Lantha Screen kinase assay, mutant enzyme; assay type: biochemical; details: geometric mean of 2-5 determinations unless otherwise indicated (a: >=6 determinations; b: single determination)
Experimental: LRRK2 kinase activity was measured using Lantha Screen technology from Invitrogen. GST-tagged truncated LRRK2 from Invitrogen (Cat # PV4874) was incubated with a fluorescein-labeled peptide substrate based upon ezrin/radixin/moesin (ERM), also known as LRRKtide (Invitrogen cat #PR8976A), in the presence of a dose response of compound. Upon completion, the assay was stopped and detected with a terbium labeled anti-phospho-ERM antibody (Invitrogen, cat #PR8975A). […] Aliquots (3.5 μL) of the 100% DMSO dose response were mixed with 46.5 μL water then 1 μL of this mixture was added to the 3 μL substrate mix in the 384-well plate. The kinase reaction was started with 3 μL of a working solution of LRRK2 enzyme at a concentration of 4 μg/mL. […] The reaction was allowed to progress at room temperature for two hours and then stopped with the addition of 7 μL of detection buffer (20 mM Tris pH 7.6, 0.01% NP-40, 0.02% NaN3, 6 mM EDTA with 2 nM terbium labeled anti-phospho-ERM).
All final concentrations of substrate ATP and enzyme were the same.

IRAK4 = IRAK4 (Homo sapiens (Human), UniProt Q9NWZ3); test: ActivX kinase probe assay (human PBMC); assay type: binding; details: read-out: percent inhibition
MAP2K6 = MAP2K6 (Homo sapiens (Human), UniProt P52564); test: ActivX kinase probe assay (human PBMC); assay type: binding; details: read-out: percent inhibition
PIP4K2A = PIP4K2A (Homo sapiens (Human), UniProt P48426); test: ActivX kinase probe assay (human PBMC); assay type: binding; details: read-out: percent inhibition
AKT1 = AKT1 (Homo sapiens (Human), UniProt P31749); test: ActivX kinase probe assay (human PBMC); assay type: binding; details: read-out: percent inhibition
MARK3 = MARK3 (Homo sapiens (Human), UniProt P27448); test: ActivX kinase probe assay (human PBMC); assay type: binding; details: read-out: percent inhibition
TAO1, TAO3 = test: ActivX kinase probe assay (human PBMC); assay type: binding
PIK3CB = PIK3CB (Homo sapiens (Human), UniProt P42338); test: ActivX kinase probe assay (human PBMC); assay type: binding; details: read-out: percent inhibition
TAO2 = TAO2 (Homo sapiens (Human), UniProt Q9UL54); test: ActivX kinase probe assay (human PBMC); assay type: binding; details: read-out: percent inhibition
RSK2 domain1 = RSK2 domain1 (Homo sapiens (Human), UniProt P51812); test: ActivX kinase probe assay (human PBMC); assay type: binding; details: read-out: percent inhibition
RSK1, RSK2, RSK3 domain1 = test: ActivX kinase probe assay (human PBMC); assay type: binding
[1] = PIP4K2C (first line of two), read-out: percent inhibition
[2] = PIP4K2C (second line of two), read-out: percent inhibition
[3] = read-out: percent inhibition, PIP4K2C (first line of two)
[4] = read-out: percent inhibition, PIP4K2C (second line of two)

Sequence of SRC (P12931 whole entry, looked up): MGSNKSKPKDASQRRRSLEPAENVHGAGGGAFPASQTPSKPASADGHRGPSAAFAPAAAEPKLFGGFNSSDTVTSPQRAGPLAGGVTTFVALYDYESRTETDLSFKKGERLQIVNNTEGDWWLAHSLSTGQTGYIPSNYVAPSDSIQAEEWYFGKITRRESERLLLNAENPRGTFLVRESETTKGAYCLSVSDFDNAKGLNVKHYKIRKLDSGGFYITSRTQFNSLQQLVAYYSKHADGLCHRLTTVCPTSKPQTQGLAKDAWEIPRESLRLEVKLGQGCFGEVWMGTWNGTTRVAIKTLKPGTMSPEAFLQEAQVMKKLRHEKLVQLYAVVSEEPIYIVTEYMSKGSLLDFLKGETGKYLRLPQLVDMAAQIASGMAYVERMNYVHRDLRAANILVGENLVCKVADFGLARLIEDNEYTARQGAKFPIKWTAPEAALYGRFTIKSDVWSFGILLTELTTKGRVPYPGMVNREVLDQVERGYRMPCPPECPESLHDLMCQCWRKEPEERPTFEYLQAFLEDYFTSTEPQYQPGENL
Sequence of PIK3CB (P42338 whole entry): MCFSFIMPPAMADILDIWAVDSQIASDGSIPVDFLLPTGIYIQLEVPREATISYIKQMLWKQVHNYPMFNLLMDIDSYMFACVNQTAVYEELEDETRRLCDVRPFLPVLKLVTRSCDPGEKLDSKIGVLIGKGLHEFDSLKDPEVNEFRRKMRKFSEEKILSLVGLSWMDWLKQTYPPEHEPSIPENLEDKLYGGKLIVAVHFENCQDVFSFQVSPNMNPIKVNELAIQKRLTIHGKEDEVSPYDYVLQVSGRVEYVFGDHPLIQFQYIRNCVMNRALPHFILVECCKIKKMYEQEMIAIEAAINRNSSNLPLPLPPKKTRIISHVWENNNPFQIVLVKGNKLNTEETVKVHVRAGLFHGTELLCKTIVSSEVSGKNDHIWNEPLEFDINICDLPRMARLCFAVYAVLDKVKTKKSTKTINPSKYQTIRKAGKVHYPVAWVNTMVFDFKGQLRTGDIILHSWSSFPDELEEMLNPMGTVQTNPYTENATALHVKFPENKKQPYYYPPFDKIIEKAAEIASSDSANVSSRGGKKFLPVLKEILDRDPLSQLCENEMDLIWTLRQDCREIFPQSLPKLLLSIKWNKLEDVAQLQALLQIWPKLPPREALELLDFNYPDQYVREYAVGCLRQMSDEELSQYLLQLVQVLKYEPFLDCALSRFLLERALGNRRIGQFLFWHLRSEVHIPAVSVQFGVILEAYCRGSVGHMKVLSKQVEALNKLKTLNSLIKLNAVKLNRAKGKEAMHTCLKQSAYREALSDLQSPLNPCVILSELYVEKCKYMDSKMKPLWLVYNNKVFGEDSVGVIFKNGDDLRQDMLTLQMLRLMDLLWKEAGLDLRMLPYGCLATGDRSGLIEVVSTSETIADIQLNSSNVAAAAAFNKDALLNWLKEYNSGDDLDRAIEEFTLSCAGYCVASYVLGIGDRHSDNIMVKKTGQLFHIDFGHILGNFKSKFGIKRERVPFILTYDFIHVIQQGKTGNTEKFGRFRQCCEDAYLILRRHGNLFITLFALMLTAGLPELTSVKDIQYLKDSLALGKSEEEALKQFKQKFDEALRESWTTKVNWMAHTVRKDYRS
Sequence of PIK3CB (P27986 whole entry partner): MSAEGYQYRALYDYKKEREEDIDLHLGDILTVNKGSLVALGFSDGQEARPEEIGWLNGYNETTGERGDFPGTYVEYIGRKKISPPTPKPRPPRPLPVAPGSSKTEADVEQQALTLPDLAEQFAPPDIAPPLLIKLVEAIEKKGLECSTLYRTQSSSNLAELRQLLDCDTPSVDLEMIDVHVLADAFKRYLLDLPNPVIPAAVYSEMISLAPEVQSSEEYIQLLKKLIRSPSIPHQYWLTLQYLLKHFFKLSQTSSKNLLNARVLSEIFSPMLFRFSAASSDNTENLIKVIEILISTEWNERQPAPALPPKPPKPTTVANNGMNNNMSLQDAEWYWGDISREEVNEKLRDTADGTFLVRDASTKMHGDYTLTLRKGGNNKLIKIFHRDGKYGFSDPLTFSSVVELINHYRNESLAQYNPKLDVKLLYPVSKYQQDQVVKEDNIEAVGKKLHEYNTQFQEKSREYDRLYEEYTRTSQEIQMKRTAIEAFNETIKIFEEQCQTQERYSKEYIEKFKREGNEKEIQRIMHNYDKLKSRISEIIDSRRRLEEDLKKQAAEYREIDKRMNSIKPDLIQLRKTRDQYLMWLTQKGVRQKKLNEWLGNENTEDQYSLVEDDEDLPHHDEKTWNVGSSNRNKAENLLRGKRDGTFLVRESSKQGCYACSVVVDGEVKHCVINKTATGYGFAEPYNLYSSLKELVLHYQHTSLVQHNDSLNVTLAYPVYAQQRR
Sequence of MAP2K6 (P52564 whole entry): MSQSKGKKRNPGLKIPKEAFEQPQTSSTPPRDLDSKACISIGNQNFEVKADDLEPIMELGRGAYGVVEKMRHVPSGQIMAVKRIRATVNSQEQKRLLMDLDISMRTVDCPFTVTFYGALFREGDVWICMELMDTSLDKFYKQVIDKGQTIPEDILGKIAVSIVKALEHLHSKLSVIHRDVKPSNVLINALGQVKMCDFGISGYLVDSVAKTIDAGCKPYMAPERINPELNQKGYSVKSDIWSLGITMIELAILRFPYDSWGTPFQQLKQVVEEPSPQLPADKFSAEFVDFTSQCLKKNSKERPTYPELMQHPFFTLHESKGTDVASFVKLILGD
Sequence of SLK (Q9H2G2 whole entry): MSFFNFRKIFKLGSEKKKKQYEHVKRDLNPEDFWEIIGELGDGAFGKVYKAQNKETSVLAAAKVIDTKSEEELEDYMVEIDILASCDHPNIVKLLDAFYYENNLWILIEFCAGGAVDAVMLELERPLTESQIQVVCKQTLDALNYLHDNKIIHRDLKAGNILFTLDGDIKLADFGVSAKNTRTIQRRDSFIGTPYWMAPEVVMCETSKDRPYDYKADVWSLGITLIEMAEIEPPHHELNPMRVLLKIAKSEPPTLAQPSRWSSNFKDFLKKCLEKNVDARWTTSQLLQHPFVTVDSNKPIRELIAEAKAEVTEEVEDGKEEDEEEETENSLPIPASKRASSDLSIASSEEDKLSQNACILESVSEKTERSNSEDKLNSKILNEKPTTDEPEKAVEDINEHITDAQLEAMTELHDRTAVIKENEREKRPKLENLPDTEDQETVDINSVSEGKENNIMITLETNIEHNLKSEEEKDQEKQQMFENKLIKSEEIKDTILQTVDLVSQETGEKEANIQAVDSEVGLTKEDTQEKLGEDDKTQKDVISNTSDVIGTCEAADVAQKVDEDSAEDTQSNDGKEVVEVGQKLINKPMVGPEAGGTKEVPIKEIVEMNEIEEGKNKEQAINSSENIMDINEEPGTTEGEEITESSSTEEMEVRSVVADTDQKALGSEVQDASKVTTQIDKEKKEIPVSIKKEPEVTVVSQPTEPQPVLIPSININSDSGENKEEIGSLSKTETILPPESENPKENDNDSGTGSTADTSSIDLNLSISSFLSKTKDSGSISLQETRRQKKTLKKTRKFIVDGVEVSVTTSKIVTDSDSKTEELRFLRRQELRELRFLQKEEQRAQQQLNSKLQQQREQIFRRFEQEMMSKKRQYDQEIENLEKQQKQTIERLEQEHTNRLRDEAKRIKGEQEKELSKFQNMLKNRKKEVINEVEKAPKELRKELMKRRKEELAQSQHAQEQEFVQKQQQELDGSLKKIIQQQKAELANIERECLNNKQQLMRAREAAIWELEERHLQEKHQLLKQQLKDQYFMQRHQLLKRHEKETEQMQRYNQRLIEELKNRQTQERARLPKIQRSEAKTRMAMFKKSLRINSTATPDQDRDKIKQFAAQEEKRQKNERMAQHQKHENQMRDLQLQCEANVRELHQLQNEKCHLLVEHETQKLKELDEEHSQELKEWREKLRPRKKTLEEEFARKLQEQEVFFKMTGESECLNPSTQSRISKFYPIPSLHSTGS
Sequence of PIK3CG (P48736 whole entry): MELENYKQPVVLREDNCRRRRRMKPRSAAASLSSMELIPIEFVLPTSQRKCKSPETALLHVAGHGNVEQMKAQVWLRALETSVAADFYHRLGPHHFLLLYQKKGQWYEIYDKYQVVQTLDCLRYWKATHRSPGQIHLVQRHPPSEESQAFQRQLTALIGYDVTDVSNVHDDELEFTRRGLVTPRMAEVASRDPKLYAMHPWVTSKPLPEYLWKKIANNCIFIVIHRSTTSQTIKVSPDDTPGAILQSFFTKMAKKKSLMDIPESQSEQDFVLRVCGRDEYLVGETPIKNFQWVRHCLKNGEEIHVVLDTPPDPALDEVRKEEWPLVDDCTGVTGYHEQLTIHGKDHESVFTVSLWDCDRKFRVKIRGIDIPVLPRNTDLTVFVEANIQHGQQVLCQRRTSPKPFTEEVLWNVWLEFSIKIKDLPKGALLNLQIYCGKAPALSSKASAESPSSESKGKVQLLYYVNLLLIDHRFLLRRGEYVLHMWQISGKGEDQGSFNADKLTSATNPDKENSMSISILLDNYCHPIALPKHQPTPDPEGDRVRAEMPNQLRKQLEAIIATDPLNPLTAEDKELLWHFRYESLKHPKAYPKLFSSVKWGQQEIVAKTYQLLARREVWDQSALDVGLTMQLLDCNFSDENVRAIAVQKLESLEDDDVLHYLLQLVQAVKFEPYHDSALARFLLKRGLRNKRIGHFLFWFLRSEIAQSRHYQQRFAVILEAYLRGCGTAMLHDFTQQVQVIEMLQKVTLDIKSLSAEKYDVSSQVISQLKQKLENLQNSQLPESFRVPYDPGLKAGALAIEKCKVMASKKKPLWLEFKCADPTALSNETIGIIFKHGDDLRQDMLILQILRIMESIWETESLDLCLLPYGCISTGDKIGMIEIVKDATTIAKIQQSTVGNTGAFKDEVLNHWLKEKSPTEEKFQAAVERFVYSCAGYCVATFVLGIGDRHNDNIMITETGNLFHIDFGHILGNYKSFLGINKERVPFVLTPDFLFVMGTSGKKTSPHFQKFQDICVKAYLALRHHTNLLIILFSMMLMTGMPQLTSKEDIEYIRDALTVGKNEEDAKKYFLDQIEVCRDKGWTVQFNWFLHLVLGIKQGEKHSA

## Cn1cc(-c2c[nH]c3ncnc(N4CCOCC4)c23)cc1C#N [Example 217, 1-methyl-4-[4-(morpholin-4-yl)-7H-pyrrolo[2,3-d]pyrimidin-5-yl]-1H-pyrrole-2-carbonitrile]
PRPK
  inhibition at 0.1 µM: 2.6%
  inhibition at 1 µM: 12.5%
IRE1; IRE1, 0.1 μM
  inhibition at 0.1 µM: 3.2%
IRE1; IRE1, 1 μM
  inhibition at 1 µM: -19.5%
NuaK2; NuaK2, 0.1 μM
  inhibition at 0.1 µM: 1.3%
NuaK2; NuaK2, 1 μM
  inhibition at 1 µM: 24.9%
RSKL1 domain1; RSKL1 domain1, 0.1 μM
  inhibition at 0.1 µM: -15.9%
RSKL1 domain1; RSKL1 domain1, 1 μM
  inhibition at 1 µM: -30.6%
CaMK1a; CaMK1a, 0.1 μM
  inhibition at 0.1 µM: -5.4%
CaMK1a; CaMK1a, 1 μM
  inhibition at 1 µM: -7.1%
p38d, p38g; 0.1 μM
  percent inhibition: −0.4%
p38d, p38g; 1 μM
  percent inhibition: 1.5%
GCN2; GCN2, 0.1 μM
  inhibition at 0.1 µM: -7.7%
GCN2; GCN2, 1 μM
  inhibition at 1 µM: -3.1%
RSK2 domain2; RSK2 domain2, 0.1 μM
  inhibition at 0.1 µM: -4.1%
RSK2 domain2; RSK2 domain2, 1 μM
  inhibition at 1 µM: 2.8%
PIP4K2C; [1]
  inhibition at 0.1 µM: 6.2%
  inhibition at 1 µM: -11.9%
PIP4K2C; [2]
  inhibition at 0.1 µM: -4.7%
  inhibition at 1 µM: 4%
PIP5K3; PIP5K3, 0.1 μM
  inhibition at 0.1 µM: 16%
PIP5K3; PIP5K3, 1 μM
  inhibition at 1 µM: 2.5%
BRAF; BRAF, 0.1 μM
  inhibition at 0.1 µM: -8.4%
BRAF; BRAF, 1 μM
  inhibition at 1 µM: -10.4%
FYN, SRC, YES; 0.1 μM
  percent inhibition: 18.4%
FYN, SRC, YES; 1 μM
  percent inhibition: −1.4%
DGKA; DGKA, 0.1 μM
  inhibition at 0.1 µM: -2.8%
DGKA; DGKA, 1 μM
  inhibition at 1 µM: 4.7%
IKKe, TBK1; 0.1 μM
  percent inhibition: 2.3%
IKKe, TBK1; 1 μM
  percent inhibition: 13.3%
KSR1, KSR2; 0.1 μM
  percent inhibition: −6.2%
KSR1, KSR2; 1 μM
  percent inhibition: −6.8%
SRC; SRC, 0.1 μM
  inhibition at 0.1 µM: -1%
SRC; SRC, 1 μM
  inhibition at 1 µM: 1.1%
PIK3CG; PIK3CG, 0.1 μM
  inhibition at 0.1 µM: -3.4%
PIK3CG; PIK3CG, 1 μM
  inhibition at 1 µM: -22%
CDK2; CDK2, 0.1 μM
  inhibition at 0.1 µM: 3.6%
CDK2; CDK2, 1 μM
  inhibition at 1 µM: 16.5%
SLK; SLK, 0.1 μM
  inhibition at 0.1 µM: 22.5%
SLK; SLK, 1 μM
  inhibition at 1 µM: 39.1%
CHK2; CHK2, 0.1 μM
  inhibition at 0.1 µM: 8.6%
CHK2; CHK2, 1 μM
  inhibition at 1 µM: 6.4%
Mutant G2019S LRRK2
  pIC50: 7.89
IRAK4; IRAK4, 0.1 μM
  inhibition at 0.1 µM: 14.7%
IRAK4; IRAK4, 1 μM
  inhibition at 1 µM: 34.5%
MAP2K6; MAP2K6, 0.1 μM
  inhibition at 0.1 µM: 11.3%
MAP2K6; MAP2K6, 1 μM
  inhibition at 1 µM: -0.1%
PIP4K2A; PIP4K2A, 0.1 μM
  inhibition at 0.1 µM: 7.8%
PIP4K2A; PIP4K2A, 1 μM
  inhibition at 1 µM: 8.2%
AKT1; AKT1, 0.1 μM
  inhibition at 0.1 µM: 5.5%
AKT1; AKT1, 1 μM
  inhibition at 1 µM: -3.6%
MARK3; MARK3, 0.1 μM
  inhibition at 0.1 µM: 16.2%
MARK3; MARK3, 1 μM
  inhibition at 1 µM: 18.4%
TAO1, TAO3; 0.1 μM
  percent inhibition: −9.7%
TAO1, TAO3; 1 μM
  percent inhibition: −16.5%
PIK3CB; PIK3CB, 0.1 μM
  inhibition at 0.1 µM: -5.3%
PIK3CB; PIK3CB, 1 μM
  inhibition at 1 µM: -29.7%
TAO2; TAO2, 0.1 μM
  inhibition at 0.1 µM: -20.2%
TAO2; TAO2, 1 μM
  inhibition at 1 µM: -18.4%
RSK2 domain1; RSK2 domain1, 0.1 μM
  inhibition at 0.1 µM: 13.2%
RSK2 domain1; RSK2 domain1, 1 μM
  inhibition at 1 µM: 61.6%
RSK1, RSK2, RSK3 domain1; 0.1 μM
  percent inhibition: 5.0%
RSK1, RSK2, RSK3 domain1; 1 μM
  percent inhibition: 48.5%

## N#Cc1cccc(-c2c[nH]c3ncnc(N4CCOCC4)c23)c1 [Example 4, 3-[4-(Morpholin-4-yl)-7H-pyrrolo[2,3-d]pyrimidin-5-yl]benzonitrile]
PRPK
  inhibition at 0.1 µM: 3%
  inhibition at 1 µM: -3.7%
IRE1
  inhibition at 0.1 µM: -16%
  inhibition at 1 µM: 1.8%
NuaK2
  inhibition at 0.1 µM: -11.9%
  inhibition at 1 µM: 18.1%
RSKL1 domain1
  inhibition at 0.1 µM: 1.1%
  inhibition at 1 µM: -1.8%
CaMK1a
  inhibition at 0.1 µM: -9.2%
  inhibition at 1 µM: 1.9%
p38d, p38g; 0.1 μM
  percent inhibition: −17.5%
p38d, p38g; 1 μM
  percent inhibition: −5.7%
GCN2
  inhibition at 0.1 µM: -13.6%
  inhibition at 1 µM: 0.6%
RSK2 domain2
  inhibition at 0.1 µM: -10%
  inhibition at 1 µM: 21.4%
PIP4K2C; [3]
  inhibition at 0.1 µM: 3.1%
  inhibition at 1 µM: 58.4%
PIP4K2C; [4]
  inhibition at 0.1 µM: 9.3%
  inhibition at 1 µM: 54.3%
PIP5K3
  inhibition at 0.1 µM: -11.2%
  inhibition at 1 µM: 21.6%
BRAF
  inhibition at 0.1 µM: 1.2%
  inhibition at 1 µM: -1.2%
FYN, SRC, YES; 0.1 μM
  percent inhibition: −22.8%
FYN, SRC, YES; 1 μM
  percent inhibition: −8.8%
DGKA
  inhibition at 0.1 µM: -15.9%
  inhibition at 1 µM: -8.7%
IKKe, TBK1; 0.1 μM
  percent inhibition: −6.7%
IKKe, TBK1; 1 μM
  percent inhibition: 18.8%
KSR1, KSR2; 0.1 μM
  percent inhibition: −8.7%
KSR1, KSR2; 1 μM
  percent inhibition: 11.7%
SRC
  inhibition at 0.1 µM: -18.3%
  inhibition at 1 µM: -2.2%
PIK3CG
  inhibition at 0.1 µM: -20.4%
  inhibition at 1 µM: -5.6%
CDK2
  inhibition at 0.1 µM: 11%
  inhibition at 1 µM: 9.2%
SLK
  inhibition at 0.1 µM: 10.5%
  inhibition at 1 µM: 60.7%
CHK2
  inhibition at 0.1 µM: -6.8%
  inhibition at 1 µM: 2.2%
Mutant G2019S LRRK2
  pIC50: 7.96
IRAK4
  inhibition at 0.1 µM: -12.8%
  inhibition at 1 µM: 10.7%
MAP2K6
  inhibition at 0.1 µM: -15.1%
  inhibition at 1 µM: 13.5%
PIP4K2A
  inhibition at 0.1 µM: -12.1%
  inhibition at 1 µM: 1.9%
AKT1
  inhibition at 0.1 µM: -8.8%
  inhibition at 1 µM: -6.3%
MARK3
  inhibition at 0.1 µM: -2.6%
  inhibition at 1 µM: 23.7%
TAO1, TAO3; 0.1 μM
  percent inhibition: −6.5%
TAO1, TAO3; 1 μM
  percent inhibition: 5.9%
PIK3CB
  inhibition at 0.1 µM: 0.5%
  inhibition at 1 µM: -2.5%
TAO2
  inhibition at 0.1 µM: -12.7%
  inhibition at 1 µM: -2.5%
RSK2 domain1
  inhibition at 0.1 µM: -6%
  inhibition at 1 µM: -11.2%
RSK1, RSK2, RSK3 domain1; 0.1 μM
  percent inhibition: −0.4%
RSK1, RSK2, RSK3 domain1; 1 μM
  percent inhibition: 13.4%
